“Also recorded” adds a separate entry of the source.

The values that follow come from US11298314B2, “Injectable composition for localized fat reduction without pain, edema, and side effects, and method for preparing same” (AMI PHARM CO., LTD., priority 2017, dated 2022).

This assay deals with 3T3-L1 adipocytes. In words: Adipocyte (3T3-L1) reducing effect, MTT assay. The conditions noted are these: for adipocyte-reducing activity compared with DCA 1.0% (Kybella): 96 hours. It is filed as cell-based. The protocol:
Tests were performed to compare the adipocyte reducing activity of the PPC single composition and the PPC composition solubilized with bile acids. Differentiated 3T3L-1 adipocyte lines were used to observe adipocyte reduction activity, and cell viability was monitored by MTT assay. […] Materials and methods employed in the following experiments are described below. In the following, % of the composition refers to % (w/v).
The specific test methods are as follows. […] The cells were washed twice with PBS, treated with MTT reagent (50 μl) and left at 37° C. for 2 hours. After removing the supernatant, MTT formazan crystals were dissolved in DMSO and the absorbance was measured at 540 nm using a microplate reader.
The 3T3-L1 adipocyte (ATCC) was cultured in Dulbecco's modified eagle medium (DMEM) (Invitrogen) supplemented with 10% fetal bovine serum, 100 units/ml penicillin and 100 μg/ml streptomycin under the condition of 5% CO2 and 37° C. […] Subsequently, the medium was replaced with DMEM medium containing 1 μg/ml insulin (Sigma), and the culture medium was maintained and changed every 2 to 3 days until the degree of differentiation reaches maximum. If it took more than 7 days, the cells were kept in normal DMEM culture medium until starting the tests. […] After the cells were incubated for 3 hours under the condition of 37° C. and 5% CO2, the MTT solution was removed.

As for “1,2-diacyl-sn-glycero-3-phosphocholine [PPC]”, for the setting “24 to 96 hours, various concentrations, listed as PPC single composition”, the “adipocyte viability / adipocyte-reducing activity” value is “reduced adipocyte viability in time and concentration dependent manner”. Besides, the “adipocyte-reducing activity compared with DCA 1.0% (Kybella)” value is on record as “equivalent” (listed as PPC 5%) and “similar; also recorded: equivalent” (listed as PPC 5.0%). Moreover, the “concentration of phosphatidylcholine with no lipolysis effect” value (FIGS. 7A to 7D) is “less than 0.625 % (w/v)”.
